Assay results taken from patent publication US20200024278A1, “COMPOSITION COMPRISING ANTIBIOTIC COMPOUND AND AN HETEROCYCLIC COMPOUND AND THEIR USE IN PREVENTING OR TREATING BACTERIAL INFECTIONS” (MUTABILIS, priority 2016, published 2020).

Experiments:
Test in all cases: MIC, broth microdilution (CLSI), substance alone or ATB combined with compound at 4 or 8 μg/mL
SPN 49619 = assay type: cell-based, S. pneumoniae; conditions: SPN 49619; for MIC ATB combined with Example: Example @8 μg/ml; for MIC ATB combined with Example compound: compound @8 μg/ml
Procedure, shortened: (§1)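 Antibiotic MICs were determined in presence of fixed compound at 4 or 8 μg/mL, and compound MICs alone, by visual growth inhibition. Inoculum 5·10^5 CFU/mL in ca-MHB, incubated 35 °C for 16-20 h per CLSI-M7-A7. Glucose-6-phosphate (25 μg/ml) added when fosfomycin was tested.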

ECO 190317 = assay type: cell-based, E. coli; conditions: ECO 190317; for MIC ATB combined with Example: Example @8 μg/ml
Procedure, shortened: as §1

ECO UFR39 = assay type: cell-based, E. coli; conditions: ECO UFR39; for MIC ATB combined with Example: Example @8 μg/ml; for MIC ATB combined with Example compound: compound @8 μg/ml
Procedure, shortened: as §1

ECL P99 = assay type: cell-based, E. cloacae; conditions: ECL P99; for MIC ATB combined with Example: Example @8 μg/ml
Procedure, shortened: as §1

PAE UFR90 = assay type: cell-based, P. aeruginosa; conditions: PAE UFR90; for MIC ATB combined with Example: Example @8 μg/ml; for MIC ATB combined with Example compound: compound @8 μg/ml
Procedure, shortened: as §1

PAE UFR48 = assay type: cell-based, P. aeruginosa; conditions: PAE UFR48; for MIC ATB combined with Example: Example @8 μg/ml; for MIC ATB combined with Example compound: compound @8 μg/ml
Procedure, shortened: as §1

PAE 105250 = assay type: cell-based, P. aeruginosa; conditions: PAE 105250; for MIC ATB combined with Example: Example @8 μg/ml; for MIC ATB combined with Example compound: compound @8 μg/ml
Procedure, shortened: as §1

KPN UFR42 = assay type: cell-based, K. pneumoniae; conditions: KPN UFR42; for MIC ATB combined with Example: Example @8 μg/ml; for MIC ATB combined with Example compound: compound @8 μg/ml
Procedure, shortened: as §1

KPN BAA-1898 = assay type: cell-based, K. pneumoniae; conditions: KPN BAA-1898; for MIC ATB combined with Example: Example @8 μg/ml
Procedure, shortened: as §1

KPN 6299 = assay type: cell-based, K. pneumoniae; conditions: for MIC ATB combined with Example: Example @8 μg/ml
Procedure, shortened: as §1

SAU 29213 = assay type: cell-based, S. aureus; conditions: for MIC ATB combined with Example / MIC ATB combined with Example compound: SAU 29213; for MIC ATB combined with Example: Example @8 μg/ml; for MIC ATB combined with Example compound: compound @8 μg/ml
Procedure, shortened: as §1

[1] = Escherichia coli, substance alone, read-out: MIC

- MIC ATB combined with Example (SPN 49619; ATB ATM): <0.031 µg/mL
- MIC ATB combined with Example (SPN 49619; ATB FEP): <=0.031 μg/mL
- MIC ATB combined with Example (SPN 49619; ATB FOS): 0.5 µg/mL
- MIC ATB combined with Example (SPN 49619; ATB MEM): <0.031 µg/mL
- MIC ATB combined with Example (SPN 49619; ATB PIP): 0.063 µg/mL
- MIC ATB combined with Example compound (SPN 49619; MIC of CIP): 31 ng/mL
- MIC ATB combined with Example compound (SPN 49619; MIC of CLI): <1 ng/mL
- MIC ATB combined with Example compound (SPN 49619; MIC of CPO): <31 ng/mL
- MIC ATB combined with Example compound (SPN 49619; MIC of DAP): <=0.0020 μg/mL
- MIC ATB combined with Example compound (SPN 49619; MIC of ERY): <2 ng/mL
- MIC ATB combined with Example compound (SPN 49619; MIC of LZD): <7.8 ng/mL
- MIC ATB combined with Example compound (SPN 49619; MIC of RIF): <=0.00012 μg/mL
- MIC ATB combined with Example compound (SPN 49619; MIC of SYN): <=0.0020 μg/mL
- MIC ATB combined with Example compound (SPN 49619; MIC of VAN): <3.9 ng/mL
- MIC (SPN 49619; Streptococcus pneumoniae, substance alone, read-out: MIC): 8 µg/mL
- MIC ATB combined with Example (ECO 190317; ATB ATM): <0.031 µg/mL
- MIC ATB combined with Example (ECO 190317; ATB FEP): <0.031 µg/mL
- MIC ATB combined with Example (ECO 190317; ATB FOS): <0.125 µg/mL
- MIC ATB combined with Example (ECO 190317; ATB MEM): <0.031 µg/mL
- MIC ATB combined with Example (ECO 190317; ATB PIP): <0.031 µg/mL
- MIC (ECO 190317; [1]): 1 µg/mL
- MIC ATB combined with Example compound (ECO 190317; MIC of CIP, compound @8 μg/ml): <0.031 µg/mL
- MIC ATB combined with Example (ECO UFR39; ATB ATM): <0.031 µg/mL
- MIC ATB combined with Example (ECO UFR39; ATB FEP): <0.031 µg/mL
- MIC ATB combined with Example (ECO UFR39; ATB FOS): <0.125 µg/mL
- MIC ATB combined with Example (ECO UFR39; ATB MEM): <0.031 µg/mL
- MIC ATB combined with Example (ECO UFR39; ATB PIP): <0.031 µg/mL
- MIC (ECO UFR39; [1]): 2 µg/mL
- MIC ATB combined with Example compound (ECO UFR39; MIC of CIP): <0.031 µg/mL
- MIC ATB combined with Example compound (ECO UFR39; MIC of CPO): <0.031 µg/mL
- MIC ATB combined with Example (ECL P99; ATB ATM): <0.031 µg/mL
- MIC ATB combined with Example (ECL P99; ATB FEP): <0.031 µg/mL
- MIC ATB combined with Example (ECL P99; ATB FOS): <0.125 µg/mL
- MIC ATB combined with Example (ECL P99; ATB MEM): <0.031 µg/mL
- MIC ATB combined with Example (ECL P99; ATB PIP): <0.031 µg/mL
- MIC (ECL P99; Enterobacter cloacae, substance alone, read-out: MIC): 4 µg/mL
- MIC ATB combined with Example compound (ECL P99; MIC of CIP, compound @8 μg/ml): <0.031 µg/mL
- MIC ATB combined with Example (PAE UFR90; ATB ATM): 16 µg/mL
- MIC ATB combined with Example (PAE UFR90; ATB FEP): 4 µg/mL
- MIC ATB combined with Example (PAE UFR90; ATB FOS): 8 µg/mL
- MIC ATB combined with Example (PAE UFR90; ATB MEM): 2 µg/mL
- MIC ATB combined with Example (PAE UFR90; ATB PIP): >32 µg/mL
- MIC ATB combined with Example compound (PAE UFR90; MIC of CIP): 1 µg/mL
- MIC ATB combined with Example compound (PAE UFR90; MIC of CPO): 8 µg/mL
- MIC ATB combined with Example (PAE UFR48; ATB ATM): 8 µg/mL
- MIC ATB combined with Example (PAE UFR48; ATB FEP): 16 µg/mL
- MIC ATB combined with Example (PAE UFR48; ATB FOS): 32 µg/mL
- MIC ATB combined with Example (PAE UFR48; ATB MEM): 0.25 µg/mL
- MIC ATB combined with Example (PAE UFR48; ATB PIP): 16 µg/mL
- MIC ATB combined with Example compound (PAE UFR48; MIC of CIP): 4 µg/mL
- MIC ATB combined with Example compound (PAE UFR48; MIC of CPO): >32 µg/mL
- MIC ATB combined with Example (PAE 105250; ATB ATM): 8 µg/mL
- MIC ATB combined with Example (PAE 105250; ATB FEP): 4 µg/mL
- MIC ATB combined with Example (PAE 105250; ATB FOS): >128 µg/mL
- MIC ATB combined with Example (PAE 105250; ATB MEM): 2 µg/mL
- MIC ATB combined with Example (PAE 105250; ATB PIP): 32 µg/mL
- MIC ATB combined with Example compound (PAE 105250; MIC of CIP): 0.125 µg/mL
- MIC ATB combined with Example compound (PAE 105250; MIC of CPO): 8 µg/mL
- MIC ATB combined with Example (KPN UFR42; ATB ATM): <0.031 µg/mL
- MIC ATB combined with Example (KPN UFR42; ATB FEP): <0.031 µg/mL
- MIC ATB combined with Example (KPN UFR42; ATB FOS): <0.125 µg/mL
- MIC ATB combined with Example (KPN UFR42; ATB MEM): <0.031 µg/mL
- MIC ATB combined with Example (KPN UFR42; ATB PIP): <0.031 µg/mL
- MIC (KPN UFR42; Klebsiella pneumoniae, substance alone, read-out: MIC): 8 µg/mL
- MIC ATB combined with Example compound (KPN UFR42; MIC of CIP): <0.031 µg/mL
- MIC ATB combined with Example compound (KPN UFR42; MIC of CPO): <0.031 µg/mL
- MIC ATB combined with Example (KPN BAA-1898; ATB ATM): <0.031 µg/mL
- MIC ATB combined with Example (KPN BAA-1898; ATB FEP): <0.031 µg/mL
- MIC ATB combined with Example (KPN BAA-1898; ATB FOS): <0.125 µg/mL
- MIC ATB combined with Example (KPN BAA-1898; ATB MEM): <0.031 µg/mL
- MIC ATB combined with Example (KPN BAA-1898; ATB PIP): <0.031 µg/mL
- MIC (KPN BAA-1898; Klebsiella pneumoniae, BAA1898, substance alone, read-out: MIC): 4 µg/mL
- MIC ATB combined with Example compound (KPN BAA-1898; MIC of CIP, compound @8 μg/ml): <0.031 µg/mL
- MIC ATB combined with Example (KPN 6299; ATB ATM): <0.031 µg/mL
- MIC ATB combined with Example (KPN 6299; ATB FEP): <0.031 µg/mL
- MIC ATB combined with Example (KPN 6299; ATB FOS): <0.125 µg/mL
- MIC ATB combined with Example (KPN 6299; ATB MEM): <0.031 µg/mL
- MIC ATB combined with Example (KPN 6299; ATB PIP): <0.031 µg/mL
- MIC ATB combined with Example compound (KPN 6299; MIC of CIP, compound @8 μg/ml): <0.031 µg/mL
- MIC ATB combined with Example (SAU 29213; ATB ATM): <0.031 µg/mL
- MIC ATB combined with Example (SAU 29213; ATB FEP): <0.031 µg/mL
- MIC ATB combined with Example (SAU 29213; ATB FOS): <0.125 µg/mL
- MIC ATB combined with Example (SAU 29213; ATB MEM): <0.031 µg/mL
- MIC ATB combined with Example (SAU 29213; ATB PIP): <0.031 µg/mL
- MIC ATB combined with Example compound (SAU 29213; MIC of CIP): <31 ng/mL
- MIC ATB combined with Example compound (SAU 29213; MIC of CLI): <1 ng/mL
- MIC ATB combined with Example compound (SAU 29213; MIC of CPO): <31 ng/mL
- MIC ATB combined with Example compound (SAU 29213; MIC of DAP): <2 ng/mL
- MIC ATB combined with Example compound (SAU 29213; MIC of ERY): <2 ng/mL
- MIC ATB combined with Example compound (SAU 29213; MIC of LZD): <7.8 ng/mL
- MIC ATB combined with Example compound (SAU 29213; MIC of RIF): <0.12 ng/mL
- MIC ATB combined with Example compound (SAU 29213; MIC of SYN): <2 ng/mL
- MIC ATB combined with Example compound (SAU 29213; MIC of VAN): <3.9 ng/mL
- MIC (SAU 29213; Staphylococcus aureus, substance alone, SAU 29213 (MSSA 29213), read-out: MIC): 4 µg/mL
SMILES: O=C1N2CC(n3cncn3)=CC(C2)N1OS(=O)(=O)[O-].[Na+] (stereo not shown) [Example 14, sodium [7-oxo-3-(1,2,4-triazol-1-yl)-1,6-diazabicyclo[3.2.1]oct-3-en-6-yl] sulfate]
